From US8846719B2, “Isoxazolo-pyridine derivatives” (Roche Palo Alto LLC, priority 2007, dated 2014)

Biological target: human GABA A receptor α5β3γ2 (Homo sapiens (Human), UniProt P18507+P31644)
Test: [3H]flumazenil competition binding assay, human GABA A α5β3γ2 receptors expressed in HEK293 cells
Conditions: human receptor; displacement of [3H]flumazenil (0.5 nM); means of two determinations; read-out: hKi GABAAa5
Summary of the method: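 Competition for [3H]flumazenil binding on membranes of HEK293 cells transiently transfected with human α5β3γ2 receptors, in Krebs-tris buffer pH 7.5.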

Row | SMILES | Ki
1 | Cc1onc(-c2ccccc2)c1COc1ccc(C(=O)n2ccc(=O)[nH]2)cn1 [Example 238, 1-[6-(5-Methyl-3-phenyl-isoxazol-4-ylmethoxy)-pyridine-3-carbonyl]-1,2-dihydro-pyrazol-3-one] | 34.9 nM
2 | Cc1nnc(-c2ccc(OCc3c(-c4ccccc4)noc3C)nc2)[nH]1 [Example 246, 2-(5-Methyl-3-phenyl-isoxazol-4-ylmethoxy)-5-(5-methyl-4H-[1,2,4]triazol-3-yl)-pyridine] | 1.1 nM
3 | Cc1onc(-c2ccccc2)c1COc1ccc([S+](C)[O-])cn1 (stereo not shown) [Example 248, 5-Methanesulfinyl-2-(5-methyl-3-phenyl-isoxazol-4-ylmethoxy)-pyridine] | 28.1 nM
4 | Cc1ccc(-c2noc(C)c2COc2ccc(C(=O)NC(C)C)cn2)c(F)c1 [Example 253, 6-[3-(2-Fluoro-4-methyl-phenyl)-5-methyl-isoxazol-4-ylmethoxy]-N-isopropyl-nicotinamide] | 0.8 nM
5 | Cc1onc(-c2ccc(Cl)cc2)c1COc1ccc(C(=O)N[C@@H](C)C(F)(F)F)cn1 [Example 258, 6-[3-(4-Chloro-phenyl)-5-methyl-isoxazol-4-ylmethoxy]-N—((S)-2,2,2-trifluoro-1-methyl-ethyl)-nicotinamide] | 1.3 nM
6 | Cc1onc(-c2cccc(F)c2F)c1COc1ccc(C(=O)NC(C)C)cn1 [Example 261, 6-[3-(2,3-Difluoro-phenyl)-5-methyl-isoxazol-4-ylmethoxy]-N-isopropyl-nicotinamide] | 26.5 nM
7 | Cc1onc(-c2cccc(F)c2F)c1COc1ccc(C(=O)NC2CCOCC2)cn1 [Example 262, 6-[3-(2,3-Difluoro-phenyl)-5-methyl-isoxazol-4-ylmethoxy]-N-(tetrahydro-pyran-4-yl)-nicotinamide] | 5.2 nM
8 | Cc1onc(-c2ccc(F)cc2F)c1COc1ccc(C(=O)NC(C)C)cn1 [Example 263, 6-[3-(2,4-Difluoro-phenyl)-5-methyl-isoxazol-4-ylmethoxy]-N-isopropyl-nicotinamide] | 2.4 nM
9 | Cc1onc(-c2ccc(F)cc2F)c1COc1ccc(C(=O)NC2CCOCC2)cn1 [Example 264, 6-[3-(2,4-Difluoro-phenyl)-5-methyl-isoxazol-4-ylmethoxy]-N-(tetrahydro-pyran-4-yl)-nicotinamide] | 2.3 nM
10 | Cc1onc(-c2cc(F)ccc2F)c1COc1ccc(C(=O)NC(C)C)cn1 [Example 265, 6-[3-(2,5-Difluoro-phenyl)-5-methyl-isoxazol-4-ylmethoxy]-N-isopropyl-nicotinamide] | 27.3 nM
11 | Cc1onc(-c2cc(F)ccc2F)c1COc1ccc(C(=O)NC2CCOCC2)cn1 [Example 266, 6-[3-(2,5-Difluoro-phenyl)-5-methyl-isoxazol-4-ylmethoxy]-N-(tetrahydro-pyran-4-yl)-nicotinamide] | 4.3 nM
12 | Cc1onc(-c2ccc(F)c(F)c2)c1COc1ccc(C(=O)NC(C)(C)CO)cn1 [Example 267, 6-[3-(3,4-Difluoro-phenyl)-5-methyl-isoxazol-4-ylmethoxy]-N-(2-hydroxy-1,1-dimethyl-ethyl)-nicotinamide] | 9.3 nM
13 | Cc1onc(-c2ccc(F)c(F)c2)c1COc1ccc(C(=O)NCC(C)(C)CO)cn1 [Example 268, 6-[3-(3,4-Difluoro-phenyl)-5-methyl-isoxazol-4-ylmethoxy]-N-(3-hydroxy-2,2-dimethyl-propyl)-nicotinamide] | 3.3 nM
14 | Cc1onc(-c2ccc(F)c(F)c2)c1COc1ccc(C(=O)NCC(C)(C)O)cn1 [Example 269, 6-[3-(3,4-Difluoro-phenyl)-5-methyl-isoxazol-4-ylmethoxy]-N-(2-hydroxy-2-methyl-propyl)-nicotinamide] | 6.7 nM
15 | Cc1onc(-c2ccc(Cl)cc2F)c1COc1ccc(C(=O)NC(C)C)cn1 [Example 270, 6-[3-(4-Chloro-2-fluoro-phenyl)-5-methyl-isoxazol-4-ylmethoxy]-N-isopropyl-nicotinamide] | 0.4 nM
16 | COC(=O)c1ccc(OCc2c(-c3ccccn3)noc2C)nc1 [Example 271, 6-(5-Methyl-3-pyridin-2-yl-isoxazol-4-ylmethoxy)-nicotinic acid methyl ester] | 3.8 nM
17 | Cc1onc(-c2ccccn2)c1COc1ccc(C(=O)NC2CCOCC2)cn1 [Example 272, 6-(5-Methyl-3-pyridin-2-yl-isoxazol-4-ylmethoxy)-N-(tetrahydro-pyran-4-yl)-nicotinamide] | 1.1 nM
18 | Cc1onc(-c2ccccn2)c1COc1ccc(C(=O)NCC(F)(F)F)cn1 [Example 275, 6-(5-Methyl-3-pyridin-2-yl-isoxazol-4-ylmethoxy)-N-(2,2,2-trifluoro-ethyl)-nicotinamide] | 1.1 nM
19 | Cc1onc(-c2ccccn2)c1COc1ccc(C(=O)N2CCS(=O)(=O)CC2)cn1 [Example 276, (1,1-Dioxo-1,6-thiomorpholin-4-yl)-[6-(5-methyl-3-pyridin-2-yl-isoxazol-4-ylmethoxy)-pyridin-3-yl]-methanone] | 10.1 nM
20 | CNC(=O)c1ccc(OCc2c(-c3ccccn3)noc2C)nc1 [Example 279, Methyl-6-(5-methyl-3-pyridin-2-yl-isoxazol-4-ylmethoxy)-nicotinamide] | 1.3 nM
21 | CCNC(=O)c1ccc(OCc2c(-c3ccccn3)noc2C)nc1 [Example 280, Ethyl-6-(5-methyl-3-pyridin-2-yl-isoxazol-4-ylmethoxy)-nicotinamide] | 1.1 nM

Results, then the molecule that gave them:

Row | Ki | SMILES
22 | 3.6 nM | Cc1onc(-c2ccccc2)c1COc1ccc(C(=O)NC2(C)CC2)cn1 [Example 239, N-(1-Methyl-cyclopropyl)-6-(5-methyl-3-phenyl-isoxazol-4-ylmethoxy)-nicotinamide]
23 | 13.9 nM | Cc1onc(-c2ccccc2)c1COc1ccc(C(=O)N2CCC2)cn1 [Example 240, Azetidin-1-yl-[6-(5-methyl-3-phenyl-isoxazol-4-ylmethoxy)-pyridin-3-yl]-methanone]
24 | 16 nM | COC1CN(C(=O)c2ccc(OCc3c(-c4ccccc4)noc3C)nc2)C1 [Example 241, (3-Methoxy-azetidin-1-yl)-[6-(5-methyl-3-phenyl-isoxazol-4-ylmethoxy)-pyridin-3-yl]-methanone]
25 | 37.3 nM | Cc1onc(-c2ccccc2)c1COc1ccc(C(=O)N2CCSC2)cn1 [Example 242, [6-(5-Methyl-3-phenyl-isoxazol-4-ylmethoxy)-pyridin-3-yl]-thiazolidin-3-yl-methanone]
26 | 2.9 nM | Cc1onc(-c2ccccc2)c1COc1ccc(C(=O)NC2(C#N)CC2)cn1 [Example 243, N-(1-Cyano-cyclopropyl)-6-(5-methyl-3-phenyl-isoxazol-4-ylmethoxy)-nicotinamide]
27 | 5.1 nM | Cc1onc(-c2ccccc2)c1COc1ccc(C(=O)Nc2ccn(C)n2)cn1 [Example 244, 6-(5-Methyl-3-phenyl-isoxazol-4-ylmethoxy)-N-(1-methyl-1H-pyrazol-3-yl)-nicotinamide]
28 | 3.3 nM | Cc1noc(-c2ccc(OCc3c(-c4ccccc4)noc3C)nc2)n1 [Example 245, 5-(3-Methyl-[1,2,4]oxadiazol-5-yl)-2-(5-methyl-3-phenyl-isoxazol-4-ylmethoxy)-pyridine]
29 | 17.7 nM | CSc1ccc(OCc2c(-c3ccccc3)noc2C)nc1 [Example 247, 2-(5-Methyl-3-phenyl-isoxazol-4-ylmethoxy)-5-methylsulfanyl-pyridine]
30 | 3.2 nM | Cc1cccc(-c2noc(C)c2COc2ccc(C(=O)NC3CCOCC3)cn2)c1 [Example 249, 6-(5-Methyl-3-m-tolyl-isoxazol-4-ylmethoxy)-N-(tetrahydro-pyran-4-yl)-nicotinamide]
31 | 3.1 nM | Cc1cccc(-c2noc(C)c2COc2ccc(C(=O)NC(C)C)cn2)c1 [Example 250, N-Isopropyl-6-(5-methyl-3-m-tolyl-isoxazol-4-ylmethoxy)-nicotinamide]
32 | 0.9 nM | Cc1ccc(-c2noc(C)c2COc2ccc(C(=O)NC3CCOCC3)cn2)cc1 [Example 251, 6-(5-Methyl-3-p-tolyl-isoxazol-4-ylmethoxy)-N-(tetrahydro-pyran-4-yl)-nicotinamide]
33 | 1 nM | Cc1ccc(-c2noc(C)c2COc2ccc(C(=O)NC(C)C)cn2)cc1 [Example 252, N-Isopropyl-6-(5-methyl-3-p-tolyl-isoxazol-4-ylmethoxy)-nicotinamide]
34 | 4.1 nM | Cc1onc(-c2ccc(Cl)cc2)c1COc1ccc(C(=O)NC(C)(C)CO)cn1 [Example 254, 6-[3-(4-Chloro-phenyl)-5-methyl-isoxazol-4-ylmethoxy]-N-(2-hydroxy-1,1-dimethyl-ethyl)-nicotinamide]
35 | 0.8 nM | Cc1onc(-c2ccc(Cl)cc2)c1COc1ccc(C(=O)Nc2cnn(C)c2)cn1 [Example 255, 6-[3-(4-Chloro-phenyl)-5-methyl-isoxazol-4-ylmethoxy]-N-(1-methyl-1H-pyrazol-4-yl)-nicotinamide]
36 | 0.8 nM | Cc1onc(-c2ccc(Cl)cc2)c1COc1ccc(C(=O)N[C@H](C)CO)cn1 [Example 256, 6-[3-(4-Chloro-phenyl)-5-methyl-isoxazol-4-ylmethoxy]-N—((R)-2-hydroxy-1-methyl-ethyl)-nicotinamide]
37 | 0.5 nM | Cc1onc(-c2ccc(Cl)cc2)c1COc1ccc(C(=O)N[C@@H](C)CO)cn1 [Example 257, 6-[3-(4-Chloro-phenyl)-5-methyl-isoxazol-4-ylmethoxy]-N—((S)-2-hydroxy-1-methyl-ethyl)-nicotinamide]
38 | 0.6 nM | Cc1onc(-c2ccccn2)c1COc1ccc(C(=O)NC(C)C)cn1 [Example 273, N-Isopropyl-6-(5-methyl-3-pyridin-2-yl-isoxazol-4-ylmethoxy)-nicotinamide]
39 | 1.5 nM | Cc1onc(-c2ccccn2)c1COc1ccc(C(=O)NCC2CC2)cn1 [Example 277, N-Cyclopropylmethyl-6-(5-methyl-3-pyridin-2-yl-isoxazol-4-ylmethoxy)-nicotinamide]
40 | 1.6 nM | Cc1onc(-c2ccccn2)c1COc1ccc(C(=O)NC2CC2)cn1 [Example 278, N-Cyclopropyl-6-(5-methyl-3-pyridin-2-yl-isoxazol-4-ylmethoxy)-nicotinamide]
